IC50 data for 29 molecules are collected here from patent US9216173B2, “2-Pyridyl carboxamide-containing spleen tyrosine kinase (SYK) inhibitors” (Merck Sharp & Dohme Corp., priority 2011, dated 2015).

Bounds are passed on as bounds.

This test addresses T1, recombinant human GST-SYK (Homo sapiens, UniProt P43405).
T1 construct: purchased Carna Biosciences 08-176
The test can be described thus: Homogeneous Time-Resolved Fluorescence (HTRF) assay for the recombinant human Syk enzyme. The format is biochemical. As to conditions: GST-hSYK 5 pM, ATP 25 μM, 10-dose titration 10 μM to 0.508 nM; read-out: rhSYK Activity (IC50 rating). Summed up: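 GST-hSYK fusion phosphorylates a peptide for 45 min at room temperature. Quenched with EDTA buffer containing 2 nM Eu-anti-phosphotyrosine antibody and 70 nM SA-APC. HTRF signal read after 30 min.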
For orientation: Time-resolved FRET reads energy transfer from a long-lived donor to a nearby acceptor.
What is called IC50 is the concentration needed to halve the response being measured. Consider `Cc1nc(Nc2cc(N[C@@H]3CCCC[C@@H]3N)cnc2C(N)=O)ccc1-c1ccc(C(O)C(F)F)cc1` (stereo partly drawn) [Example 3.8, 5-{[(1R,2S)-2-aminocyclohexyl]amino}-3-({5-[4-(2,2-difluoro-1-hydroxyethyl)phenyl]-6-methylpyridin-2-yl}amino)pyridine-2-carboxamide], for which the IC50 is less than 10 nM.
Turning to `Cc1nc(Nc2cc(N[C@@H]3CCCC[C@@H]3N)cnc2C(N)=O)ccc1-c1ccc2nnn(C)c2c1` [Example 3.9, 5-{[(1R,2S)-2-aminocyclohexyl]amino}-3-{[6-methyl-5-(1-methyl-1H-benzotriazol-6-yl)pyridin-2-yl]amino}pyridine-2-carboxamide], the concentration for half-maximal inhibition (IC50) is less than 10 nM.
`Cc1nc(Nc2cc(N[C@@H]3CCCC[C@@H]3N)cnc2C(N)=O)ccc1-c1ccc(OC(F)F)cc1` [Example 3.10, 5-{[(1R,2S)-2-aminocyclohexyl]amino}-3-({5-[4-(difluoromethoxy)phenyl]-6-methylpyridin-2-yl}amino)pyridine-2-carboxamide]: the half-inhibitory concentration (IC50) is less than 10 nM.
The same measure for `Cc1nc(Nc2cc(N[C@@H]3CCCC[C@@H]3N)cnc2C(N)=O)ccc1-c1cccc(C(O)C(F)(F)F)c1` (stereo partly drawn) [Example 3.11, 5-{[(1R,2S)-2-aminocyclohexyl]amino}-3-({6-methyl-5-[3-(2,2,2-trifluoro-1-hydroxyethyl)phenyl]pyridin-2-yl}amino)pyridine-2-carboxamide]: less than 10 nM; for `Cc1nc(Nc2cc(N[C@@H]3CCCC[C@@H]3N)cnc2C(N)=O)ccc1-c1cccc2c1CNC2=O` [Example 3.12, 5-{[(1R,2S)-2-aminocyclohexyl]amino}-3-{[6-methyl-5-(1-oxo-2,3-dihydro-1H-isoindol-4-yl)pyridin-2-yl]amino}pyridine-2-carboxamide]: less than 10 nM; for `Cc1nc(Nc2cc(N[C@@H]3CCCC[C@@H]3N)cnc2C(N)=O)ccc1-c1ccc(N2CCN(C)CC2)cc1` [Example 3.13, 5-{[(1R,2S)-2-aminocyclohexyl]amino}-3-({6-methyl-5-[4-(4-methylpiperazin-1-yl)phenyl]pyridin-2-yl}amino)pyridine-2-carboxamide]: less than 10 nM.
Next, `Cc1nc(Nc2cc(N[C@@H]3CCCC[C@@H]3N)cnc2C(N)=O)ccc1-c1cccc(N2CCN(C)CC2)c1` [Example 3.14, 5-{[(1R,2S)-2-aminocyclohexyl]amino}-3-({6-methyl-5-[3-(4-methylpiperazin-1-yl)phenyl]pyridin-2-yl}amino)pyridine-2-carboxamide]: less than 10 nM.
Next, `Cc1nc(Nc2cc(N[C@@H]3CCCC[C@@H]3N)cnc2C(N)=O)ccc1-c1ccc(-n2nccn2)cc1` [Example 3.15, 5-{[(1R,2S)-2-aminocyclohexyl]amino}-3-({6-methyl-5-[4-(2H-1,2,3-triazol-2-yl)phenyl]pyridin-2-yl}amino)pyridine-2-carboxamide]: less than 10 nM.
For the molecule `Cc1nc(Nc2cc(N[C@@H]3CCCC[C@@H]3N)cnc2C(N)=O)ccc1-c1ccc2c(c1)C(=O)NC2` [Example 3.16, 5-{[(1R,2S)-2-aminocyclohexyl]amino}-3-{[6-methyl-5-(3-oxo-2,3-dihydro-1H-isoindol-5-yl)pyridin-2-yl]amino}pyridine-2-carboxamide], the concentration for half-maximal inhibition (IC50) is less than 10 nM.
Next, `Cc1nc(Nc2cc(N[C@@H]3CCCC[C@@H]3N)cnc2C(N)=O)ccc1-c1ccc2c(c1)CNC2=O` [Example 3.17, 5-{[(1R,2S)-2-aminocyclohexyl]amino}-3-{[6-methyl-5-(1-oxo-2,3-dihydro-1H-isoindol-5-yl)pyridin-2-yl]amino}pyridine-2-carboxamide]: less than 10 nM; `Cc1nc(Nc2cc(N[C@@H]3CCCC[C@@H]3N)cnc2C(N)=O)ccc1-c1ccc2c(cnn2C)c1` [Example 3.18, 5-{[(1R,2S)-2-aminocyclohexyl]amino}-3-{[6-methyl-5-(1-methyl-1H-indazol-5-yl)pyridin-2-yl]amino}pyridine-2-carboxamide]: less than 10 nM; `Cc1nc(Nc2cc(N[C@@H]3CCCC[C@@H]3N)cnc2C(N)=O)ccc1-c1cccc(N(C)S(C)(=O)=O)c1` [Example 3.19, 5-{[(1R,2S)-2-aminocyclohexyl]amino}-3-[(6-methyl-5-{3-[methyl(methylsulfonyl)amino]phenyl}pyridin-2-yl)amino]pyridine-2-carboxamide]: less than 10 nM.
As to `Cc1nc(Nc2cc(N[C@@H]3CCCC[C@@H]3N)cnc2C(N)=O)ccc1-c1cccc(-n2nccn2)c1` [Example 3.20, 5-{[(1R,2S)-2-aminocyclohexyl]amino}-3-({6-methyl-5-[3-(2H-1,2,3-triazol-2-yl)phenyl]pyridin-2-yl}amino)pyridine-2-carboxamide], the IC50 is less than 10 nM.
As to `Cc1nc(Nc2cc(N[C@@H]3CCCC[C@@H]3N)cnc2C(N)=O)ccc1-c1ccc2c(=O)nc[nH]c2c1` [Example 3.21, 5-{[(1R,2S)-2-aminocyclohexyl]amino}-3-{[6-methyl-5-(4-oxo-1,4-dihydroquinazolin-7-yl)pyridin-2-yl]amino}pyridine-2-carboxamide], the concentration for half-maximal inhibition (IC50) was less than 10 nM.
The same measure for `COc1ccc(-c2ccc(Nc3cc(N[C@@H]4CCCC[C@@H]4N)cnc3C(N)=O)nc2C)cn1` [Example 3.22, 5-{[(1R,2S)-2-aminocyclohexyl]amino}-3-[(6′-methoxy-2-methyl-3,3′-bipyridin-6-yl)amino]pyridine-2-carboxamide]: less than 10 nM; for `COc1ncc(-c2ccc(Nc3cc(N[C@@H]4CCCC[C@@H]4N)cnc3C(N)=O)nc2C)cn1` [Example 3.24, 5-{[(1R,2S)-2-aminocyclohexyl]amino}-3-{[5-(2-methoxypyrimidin-5-yl)-6-methylpyridin-2-yl]amino}pyridine-2-carboxamide]: less than 10 nM; for `Cc1nc(Nc2cc(N[C@@H]3CCCC[C@@H]3N)cnc2C(N)=O)ccc1-c1cncnc1` [Example 3.25, 5-{[(1R,2S)-2-aminocyclohexyl]amino}-3-[(6-methyl-5-pyrimidin-5-ylpyridin-2-yl)amino]pyridine-2-carboxamide]: less than 10 nM.
Next, `COc1ncccc1-c1ccc(Nc2cc(N[C@@H]3CCCC[C@@H]3N)cnc2C(N)=O)nc1C` [Example 3.26, 5-{[(1R,2S)-2-aminocyclohexyl]amino}-3-[(2′-methoxy-2-methyl-3,3′-bipyridin-6-yl)amino]pyridine-2-carboxamide]: less than 10 nM; `Cc1nc(Nc2cc(N[C@@H]3CCCC[C@@H]3N)cnc2C(N)=O)ccc1-c1ccc2cccnc2c1` [Example 3.27, 5-{[(1R,2S)-2-aminocyclohexyl]amino}-3-[(6-methyl-5-quinolin-7-ylpyridin-2-yl)amino]pyridine-2-carboxamide]: less than 10 nM.
The same measure for `Cc1cccc(-c2ccc(Nc3cc(N[C@@H]4CCCC[C@@H]4N)cnc3C(N)=O)nc2C)c1O` [Example 3.28, 5-{[(1R,2S)-2-aminocyclohexyl]amino}-3-{[5-(2-hydroxy-3-methylphenyl)-6-methylpyridin-2-yl]amino}pyridine-2-carboxamide]: 10 to 100 nM; for `Cc1nc(Nc2cc(N[C@@H]3CCCC[C@@H]3N)cnc2C(N)=O)ccc1-c1ccc(-c2nccn2C)cc1` [Example 3.29, 5-{[(1R,2S)-2-aminocyclohexyl]amino}-3-({6-methyl-5-[4-(1-methyl-1H-imidazol-2-yl)phenyl]pyridin-2-yl}amino)pyridine-2-carboxamide]: less than 10 nM.
Consider `Cc1nc(Nc2cc(N[C@@H]3CCCC[C@@H]3N)cnc2C(N)=O)ccc1-c1ccc(-c2ncco2)cc1` [Example 3.30, 5-{[(1R,2S)-2-aminocyclohexyl]amino}-3-({6-methyl-5-[4-(1,3-oxazol-2-yl)phenyl]pyridin-2-yl}amino)pyridine-2-carboxamide], for which the half-maximal inhibitory concentration (IC50) was less than 10 nM.
As to `Cc1nc(Nc2cc(N[C@@H]3CCCC[C@@H]3N)cnc2C(N)=O)ccc1-c1ccc2c(c1)n(C)c(=O)n2C` [Example 3.31, 5-{[(1R,2S)-2-aminocyclohexyl]amino}-3-{[5-(1,3-dimethyl-2-oxo-2,3-dihydro-1H-benzimidazol-5-yl)-6-methylpyridin-2-yl]amino}pyridine-2-carboxamide], the IC50 is less than 10 nM.
Next, `Cc1nc(Nc2cc(N[C@@H]3CCCC[C@@H]3N)cnc2C(N)=O)ccc1-c1ccc(C)c2ncccc12` [Example 3.32, 5-{[(1R,2S)-2-aminocyclohexyl]amino}-3-{[6-methyl-5-(8-methylquinolin-5-yl)pyridin-2-yl]amino}pyridine-2-carboxamide]: less than 10 nM.
The same measure for `Cc1cc(-c2ccccc2)cc(Nc2cc(N[C@@H]3CCCC[C@@H]3N)cnc2C(N)=O)n1` [Example 4.1, 5-{[(1R,2S)-2-aminocyclohexyl]amino}-3-[(6-methyl-4-phenylpyridin-2-yl)amino]pyridine-2-carboxamide]: less than 10 nM.
The same measure for `Cc1cc(-c2cccnc2)cc(Nc2cc(N[C@@H]3CCCC[C@@H]3N)cnc2C(N)=O)n1` [Example 4.2, 5-{[(1R,2S)-2-aminocyclohexyl]amino}-3-[(6′-methyl-3,4′-bipyridin-2′-yl)amino]pyridine-2-carboxamide]: less than 10 nM.
Regarding `Cc1cc(-c2cnn(C)c2)cc(Nc2cc(N[C@@H]3CCCC[C@@H]3N)cnc2C(N)=O)n1` [Example 4.3, 5-{[(1R,2S)-2-aminocyclohexyl]amino}-3-{[6-methyl-4-(1-methyl-1H-pyrazol-4-yl)pyridin-2-yl]amino}pyridine-2-carboxamide], the IC50 is less than 10 nM.
Next, `Cc1cc(-c2ccnn2C)cc(Nc2cc(N[C@@H]3CCCC[C@@H]3N)cnc2C(N)=O)n1` [Example 4.4, 5-{[(1R,2S)-2-aminocyclohexyl]amino}-3-{[6-methyl-4-(1-methyl-1H-pyrazol-5-yl)pyridin-2-yl]amino}pyridine-2-carboxamide]: less than 10 nM; `Cc1nc(Nc2cc(N[C@@H]3CCCC[C@@H]3N)cnc2C(N)=O)ccc1OC(C)C` [Example 5.1, 5-{[(1R,1S)-2-aminocyclohexyl]amino}-3-{[6-methyl-5-(propan-2-yloxy)pyridin-2-yl]amino}pyridine-2-carboxamide]: less than 10 nM.
